Our source for the IC50 values is ChEMBL document CHEMBL4715921, “Novel Quinazolinyl Compounds as Endoribonuclease Inositol Requiring Enzyme 1 (IRE 1α) Inhibitors for Treating Cancer” (ACS Med Chem Lett, 2021).

This test in a line: Inhibition of His-tagged IRE1alpha D688N mutant KR domain (G547 to L997 reidues) (unknown origin) expressed in Sf9 insect cells measured after 1 hr by TR-FRET assay. The arrangement: species or system Homo sapiens.

As to `CCc1cc(-c2ccc(NS(=O)(=O)CCC(F)(F)F)c(F)c2)cc2cnc(N[C@H]3CC[C@H](N(C)C)CC3)nc12`, the IC50 is 0.25 nM.
The value for `O=S(=O)(Cc1ccccc1)Nc1c(F)cc(-c2ccc3nc(N[C@H]4CCCNC4)ncc3c2)cc1F` was 0.53 nM; that for `O=S(=O)(Cc1ccccc1)Nc1c(F)cc(-c2ccc3nc(N[C@@H]4CNC[C@@H](F)C4)ncc3c2)cc1F` was 0.51 nM.
For `CCc1cc(-c2ccc(NS(=O)(=O)Cc3ccccc3)c(F)c2)cc2cnc(N[C@@H]3CNC[C@@H](F)C3)nc12` the value was 0.18 nM; for `CCc1cc(-c2ccc(NS(=O)(=O)Cc3ccccc3)cc2F)cc2cnc(N[C@@H]3CNC[C@@H](F)C3)nc12`, 0.46 nM.
The value for `O=S(=O)(Cc1ccccc1)Nc1ccc(-c2ccc3nc(N[C@H]4CCCNC4)ncc3c2)c(F)c1F` was 0.57 nM.
